{"source": "paper PMC4156869", "about": "(Journal of the American Chemical Society, 2014)", "biological_target": "T1, GalK2 (N-acetyl-galactosamine kinase) (Homo sapiens, UniProt Q01415)", "T1 sequence (Q01415 1-458)": "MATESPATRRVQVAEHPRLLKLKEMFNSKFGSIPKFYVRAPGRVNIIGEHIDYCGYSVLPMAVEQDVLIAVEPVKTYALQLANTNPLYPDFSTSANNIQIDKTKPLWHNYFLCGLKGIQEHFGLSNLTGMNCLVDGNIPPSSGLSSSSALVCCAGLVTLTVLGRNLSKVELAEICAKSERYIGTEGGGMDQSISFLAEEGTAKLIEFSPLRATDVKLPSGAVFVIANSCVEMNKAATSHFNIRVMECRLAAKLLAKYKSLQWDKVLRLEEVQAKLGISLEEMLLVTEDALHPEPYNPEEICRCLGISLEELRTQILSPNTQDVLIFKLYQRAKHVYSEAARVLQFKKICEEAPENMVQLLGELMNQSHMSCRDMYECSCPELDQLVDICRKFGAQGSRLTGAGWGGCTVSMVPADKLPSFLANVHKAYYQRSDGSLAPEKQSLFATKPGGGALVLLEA", "assay": "[…]gamma-ATP phosphorylation, Dowex column, scintillation counting", "type": "biochemical", "conditions": "40 mM sugar, 5 mM ATP, 10 mM MgCl2, 50 mM Tris HCl pH 8.0, 37 °C", "data": [{"smiles": "CC(=O)N[C@H]1C(O)O[C@H](CO)[C@H](O)[C@@H]1O", "note": "(some centres unmarked) [GalNAc]", "values": [{"measurement": "[32P]gamma-ATP phosphorylation, Dowex column, scintillation counting", "result": "GalK2 readily phosphorylated both GalNAc and GlcNAc"}]}, {"smiles": "CC(=O)N[C@H]1C(O)O[C@H](CO)[C@@H](O)[C@@H]1O", "note": "(some centres unmarked) [GlcNAc]", "values": [{"measurement": "[32P]gamma-ATP phosphorylation, Dowex column, scintillation counting", "result": "GalK2 readily phosphorylated both GalNAc and GlcNAc"}]}]}
